In data set [1] the test system is murine leukemia cells (L1210). Put plainly: proliferation activity assay, L1210 cells. In kind it is cell-based. Conditions: read-out: IC50 (50% inhibitory concentration) L1210.
The test system of data set [2] is non-cancerous human T-lymphocyte cells (CEM). The data set is described as follows: proliferation activity assay, CEM cells. In kind it is cell-based. Particulars: read-out: IC50 (50% inhibitory concentration) CEM.
For data set [3], the system named is human cervix carcinoma cells (Hela). The data set is described as follows: proliferation activity assay, HeLa cells. Conditions: read-out: IC50 (50% inhibitory concentration) HeLa. It counts as cell-based.
The subject of data set [4] is oesophageal cancer cell lines OE 19 and OE 33.
The subject of data set [5] is Vaccinia virus. The data set is described as follows: microbe, parasite or virus in culture. Particulars: read-out: EC50 (required to reduce virus-induced cytopathogenicity by 50%) Vaccinia virus. In kind it is cell-based. For orientation: Cytopathic effects are the visible damage that an infection or toxin causes in cultured cells.
Data set [6] deals with Vesicular stomatitis virus. The data set is described as follows: microbe, parasite or virus in culture. It counts as cell-based. Particulars: read-out: EC50 (required to reduce virus-induced cytopathogenicity by 50%) Vesicular stomatitis virus.
For data set [7], the system named is Herpes simplex virus-1 TK^− KOS ACV^r. Put plainly: microbe, parasite or virus in culture. In kind it is cell-based. Conditions: read-out: EC50 (required to reduce virus-induced cytopathogenicity by 50%) Herpes simplex virus-1 TK^− KOS ACV^r.
For data set [8], the system named is Herpes simplex virus-1 (KOS). The data set is described as follows: microbe, parasite or virus in culture. Particulars: Human alphaherpesvirus 1, HeLa, read-out: EC50 (required to reduce virus-induced cytopathogenicity by 50%) Herpes simplex virus-1 (KOS).
The test system of data set [9] is Herpes simplex virus-2 (G). The data set is described as follows: microbe, parasite or virus in culture. Particulars: Human alphaherpesvirus 2, HeLa, read-out: EC50 (required to reduce virus-induced cytopathogenicity by 50%) Herpes simplex virus-2 (G).
Data set [10] relates to Hela cells. The data set is described as follows: minimum cytotoxic concentration in antiviral assay host cells (Table 2).
The test system of data set [11] is Herpes simplex virus-1 (KOS). Conditions: read-out: EC50 (required to reduce virus-induced cytopathogenicity by 50%) Herpes simplex virus-1 (KOS); Hela cells.
Data set [12] relates to Herpes simplex virus-2 (G). Conditions: read-out: EC50 (required to reduce virus-induced cytopathogenicity by 50%) Herpes simplex virus-2 (G); Hela cells.
For data set [13], the system named is cells lacking (TK negative) or possessing (TK positive) the phosphorylation enzyme. Conditions: cell death curves, FIG. 3.
Where [14] appears, read: even at higher concentrations of 25 μM.
The mark [15] stands for this setting: Vesicular stomatitis virus, HeLa.

Like-named read-outs stand apart in the source and are kept apart here.

In the case of “1-(Thyminyl-)ethyl-ferrocene [Compound 4]”, the results for the IC50 in data set [1], in data set [2] and in data set [3] were 417 µM, 592 µM and 509 µM, respectively. Also, in data set [4] (setting [14]), the “inhibition of cell growth” value is “ineffective at inhibiting cell growth”.
“1-[2-(Adenin-9-yl)ethyl]-ferrocene [Compound 5]”: in [4] (setting [14]), the “inhibition of cell growth” value is reported as “ineffective at inhibiting cell growth”.
Consider “1-[α-Methyl-(3-(hydroxy)propyl)]ferrocene [Compound 3]”, for which the values for the IC50 in [1], in data set [2] and in [3] were 12.3 µM, 38.7 µM and 45.2 µM, respectively. In addition, in data set [4] (setting [14]), the “inhibition of cell growth” value was “ineffective at inhibiting cell growth”.
Regarding `Nc1nc2c(ncn2COCCO)c(=O)[nH]1` [Acyclovir], the EC50 in data set [5] (Orthopoxvirus vaccinia, HeLa) was over 250 µM; in data set [6] (setting [15]), over 250 µM; in [7] (Human alphaherpesvirus 1, HeLa) it was 50 µM.
As to `O=c1[nH]c(=O)n([C@H]2C[C@H](O)[C@@H](CO)O2)cc1/C=C/Br` [Brivudin], the 50% effective concentration (EC50) in data set [5] (Orthopoxvirus vaccinia, HeLa) was 10 µM; in [6] (setting [15]), over 250 µM; in data set [7] (Human alphaherpesvirus 1, HeLa), 50 µM; in data set [8], 0.02 µM; in data set [9], 183 µM. Moreover, the “Minimum cytotoxic concentration (required to cause a microscopically detectable alteration of normal cell morphology)” value in [10] is given as over 250 μM.
For the compound `Nc1ccn(C[C@@H](CO)OCP(=O)(O)O)c(=O)n1` [Cidofovir], the EC50 in data set [5] (Orthopoxvirus vaccinia, HeLa) was 17 µM; in data set [6] (setting [15]) it was over 250 µM; in [7] (Human alphaherpesvirus 1, HeLa), 0.9 µM; in data set [8], 2 µM; in data set [9] it was 2 µM. Moreover, the “Minimum cytotoxic concentration (required to cause a microscopically detectable alteration of normal cell morphology)” value in data set [10] was over 250 μM.
Take `N.N.[Cl][Pt][Cl]` [Cisplatin]: the IC50 came out at 1 µM in [1], 0.9 µM in [2] and 1.2 µM in data set [3].
Consider `Nc1nc(O)c2ncn(COC(CO)CO)c2n1` [Ganciclovir], for which the EC50 in [5] (Orthopoxvirus vaccinia, HeLa) was over 100 µM; in data set [6] (setting [15]), over 100 µM; in [7] (Human alphaherpesvirus 1, HeLa) it was 10 µM.
In the case of “(S,Rp)-1-[α-Methyl-(3-(hydroxy)propyl)]-2-[2-(-adenin-9-yl)ethyl]-ferrocene [Compound 2]”, in data set [4] (6.25 μM, 4-day experiment), the “inhibition of cell growth” value was “inhibited cell growth”.
Regarding “(S,Rp)-1-[α-Methyl-(3-(hydroxy)propyl)]-2-[(thyminyl)ethyl]-ferrocene [Compound 1]”, the IC50 is 0.78 µM in [1], 0.9 µM in data set [2] and 2.68 µM in [3]. In addition, the EC50 in data set [5] is 21.6 µM; in [6], 48 µM; in data set [7] (Hela cells), 9.6 µM; in data set [11] it was 2.4 µM; in data set [12], 2.4 µM. Further, the “inhibition of cell growth” value in [4] (6.25 μM, 4-day experiment) is on record as “inhibited cell growth”. The “cell survival, TK negative versus TK positive cells” value in data set [13] is on record as “the cells lacking the phosphorylation enzyme (TK negative) survive more than the cells that possess the phosphorylation enzyme (TK positive)”.

A word on the EC50: it is the midpoint of the concentration-response curve.

The values are drawn from US10138261B2, “Ferrocenyl compounds” (The University of Birmingham, priority 2013, dated 2018).
